Tested on: dorsal forearm skin of healthy female Caucasian subjects with mild to moderate photo damage
Assay: In vivo biopsy, histology of treated dorsal forearm skin
Design: species or system human
Conditions: 3 weeks semi-occlusion patch, 2 mg/cm^2, extract 0.33%, retinol 0.05% active
Description: Healthy female Caucasian subjects aged 30-65, with skin type II or III and mild to moderate photo damage, were treated on the dorsal forearm for 3 weeks (3 consecutive rounds of 5×24 hour) under semi-occlusion patches. Test articles including active ingredients, vehicle controls, and retinol were applied in a randomized allocation on 6 sites on each forearm. The application dose was 2 mg/cm^2. After 3 week treatment, a 2 mm punch biopsy was obtained from each treatment site and fixed in 10% buffered formalin. Tissue samples then embedded in paraffin, sectioned (5 μm thickness), and stained for skin markers after re-hydration. […] Retinol at a active concentration of 0.05% was used a positive control. Retinol use at a 0.05% active concentration in the semi-occlusion patch vehicle formulation yielded a visual score of approximately 0.56 out of a 4 point scale in HE staining (measuring hematoxylin and eosin staining, an indication of viable epidermal thickness and health) with 63.6% of the subjects showing an improvement; a visual score of 0.6 out of a 4 point scale in M-TC staining (Masson's trichrome staining, assessing total mature fiber-forming collagen in the dermis—mainly Collagen I, […] and Collagen V) with 51.6% of the subjects showing an improvement; a visual score of 0.52 out of a 4 point scale for pro-Col (measuring new synthesis of Collagen I by skin fibroblasts in the dermis) with 51.6% of the subjects showing an improvement; and a visual score of 0.57 out of a 4 point scale for HA (measuring level of hyaluronic acid in both dermis and epidermis) with 50% of the subjects showing an improvement.

CC1=C(/C=C/C(C)=C/C=C/C(C)=C/CO)C(C)(C)CCC1 [Retinol]
subjects showing an improvement, HA: 50% | subjects showing an improvement, HE staining: 63.6% | subjects showing an improvement, M-TC staining: 51.6% | subjects showing an improvement, pro-Col: 51.6% | visual score for HA (level of hyaluronic acid in both dermis and epidermis) (out of a 4 point scale): 0.57 | visual score for pro-Col (new synthesis of Collagen I by skin fibroblasts in the dermis) (out of a 4 point scale): 0.52 | visual score in HE staining (viable epidermal thickness and health) (out of a 4 point scale): approximately 0.56 | visual score in M-TC staining (total mature fiber-forming collagen in the dermis) (out of a 4 point scale): 0.6

Source: patent US20150359731A1, “PHYLLANTHUS ACIDUS EXTRACTS AND METHODS OF USE” (AVON PRODUCTS, INC, priority 2013, published 2015)
